Activity calls are given as the source filed them.
How the values were obtained:
Streptokinase A = target: T1, Streptokinase A (Streptococcus pyogenes serotype M1, UniProt P10520); experiment: S. pyogenes streptokinase expression inhibitors, potency, dose response, plasminogen activation absorbance, OD405 (AID 1914); type: functional, Streptococcus pyogenes M1 GAS;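 note: secreted streptokinase activity via plasminogen activation per viability signal from cell pellet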
T1 sequence (P10520 whole entry): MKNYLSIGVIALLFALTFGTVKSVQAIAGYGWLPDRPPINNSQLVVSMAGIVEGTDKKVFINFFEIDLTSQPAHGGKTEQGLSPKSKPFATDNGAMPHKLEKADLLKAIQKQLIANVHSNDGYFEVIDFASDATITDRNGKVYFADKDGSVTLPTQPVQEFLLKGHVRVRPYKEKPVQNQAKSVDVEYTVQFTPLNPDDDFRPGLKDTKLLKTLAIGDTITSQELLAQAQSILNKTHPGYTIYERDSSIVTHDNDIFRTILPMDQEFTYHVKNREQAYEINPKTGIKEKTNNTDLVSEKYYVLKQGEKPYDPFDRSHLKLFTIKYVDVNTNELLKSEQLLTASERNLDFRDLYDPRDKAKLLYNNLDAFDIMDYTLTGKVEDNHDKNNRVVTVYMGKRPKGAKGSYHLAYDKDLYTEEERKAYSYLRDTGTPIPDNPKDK

Streptococcus = experiment: Group A Streptococcus viability loss, dose response, counter-screen for streptokinase expression inhibitor project, luminescence, BacTiterGlo (AID 1915); type: functional, organism-based;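 note: potency for reduction of bacterial viability or growth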
Protein skinhead-1 = target: T2, Protein skinhead-1 (Caenorhabditis elegans, UniProt P34707); type: functional
T2 sequence (P34707 whole entry): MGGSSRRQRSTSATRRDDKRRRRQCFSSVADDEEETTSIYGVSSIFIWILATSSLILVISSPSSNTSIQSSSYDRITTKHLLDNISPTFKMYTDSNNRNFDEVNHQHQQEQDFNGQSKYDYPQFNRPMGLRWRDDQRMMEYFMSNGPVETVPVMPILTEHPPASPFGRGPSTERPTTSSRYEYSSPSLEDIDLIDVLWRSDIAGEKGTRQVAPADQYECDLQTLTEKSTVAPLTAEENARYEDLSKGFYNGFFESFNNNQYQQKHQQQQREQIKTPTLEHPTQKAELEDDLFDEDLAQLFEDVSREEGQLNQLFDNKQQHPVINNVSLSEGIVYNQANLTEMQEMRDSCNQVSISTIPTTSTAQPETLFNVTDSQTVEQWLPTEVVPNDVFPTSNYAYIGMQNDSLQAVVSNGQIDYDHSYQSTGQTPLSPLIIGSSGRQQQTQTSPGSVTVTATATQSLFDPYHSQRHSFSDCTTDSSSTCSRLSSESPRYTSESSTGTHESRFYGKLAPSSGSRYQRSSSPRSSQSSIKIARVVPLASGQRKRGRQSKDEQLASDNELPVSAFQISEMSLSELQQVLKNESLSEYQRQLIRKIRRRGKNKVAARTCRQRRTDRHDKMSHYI

HepG2 = experiment: HepG2 cell cytotoxicity, dose response, cytotoxicity control, cherry-picks, set 2 (AID 687002); type: functional, cell-based; settings: Homo sapiens
Bcl-2-related protein A1 = target: T3, Bcl-2-related protein A1 (Mus musculus, UniProt Q07440); type: functional;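 note: confirmatory dose–response counterscreen on Bfl-1, used to check hits from a UBC13 polyubiquitin inhibitor campaign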
T3 sequence (Q07440 whole entry): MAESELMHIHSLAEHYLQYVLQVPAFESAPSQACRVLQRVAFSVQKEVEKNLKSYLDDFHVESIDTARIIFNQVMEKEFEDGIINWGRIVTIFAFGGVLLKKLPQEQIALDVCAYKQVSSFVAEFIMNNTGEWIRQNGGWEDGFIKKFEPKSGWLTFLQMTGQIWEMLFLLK

[1] = inhibitors of SNCA 5'UTR-driven reporter translation, confirmation, H4 neuroglioma cells, luminescence (AID 1988); type: functional, cell-based
HeLa = experiment: HeLa cell cytotoxicity, dose response, cytotoxicity control, ATP luminescence, cherry-pick samples (AID 687004); type: functional, cell-based; settings: Homo sapiens
Troponin, cardiac muscle = Troponin, cardiac muscle (Homo sapiens, UniProt P19429+P45379+P63316); experiment: inhibitors of cardiac thin filament calcium sensitivity, dose response, biochemical, fluorescence, cardiac regulated thin filaments, triplicate IC50 (AID 504742); type: protein-complex assay
Large T antigen = Large T antigen (Simian virus 40, UniProt P03070); type: functional, Betapolyomavirus macacae;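 note: Confirmatory-stage PubChem screen for compounds that inhibit SV40 T antigen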
Sequence of Large T antigen (P03070 whole entry): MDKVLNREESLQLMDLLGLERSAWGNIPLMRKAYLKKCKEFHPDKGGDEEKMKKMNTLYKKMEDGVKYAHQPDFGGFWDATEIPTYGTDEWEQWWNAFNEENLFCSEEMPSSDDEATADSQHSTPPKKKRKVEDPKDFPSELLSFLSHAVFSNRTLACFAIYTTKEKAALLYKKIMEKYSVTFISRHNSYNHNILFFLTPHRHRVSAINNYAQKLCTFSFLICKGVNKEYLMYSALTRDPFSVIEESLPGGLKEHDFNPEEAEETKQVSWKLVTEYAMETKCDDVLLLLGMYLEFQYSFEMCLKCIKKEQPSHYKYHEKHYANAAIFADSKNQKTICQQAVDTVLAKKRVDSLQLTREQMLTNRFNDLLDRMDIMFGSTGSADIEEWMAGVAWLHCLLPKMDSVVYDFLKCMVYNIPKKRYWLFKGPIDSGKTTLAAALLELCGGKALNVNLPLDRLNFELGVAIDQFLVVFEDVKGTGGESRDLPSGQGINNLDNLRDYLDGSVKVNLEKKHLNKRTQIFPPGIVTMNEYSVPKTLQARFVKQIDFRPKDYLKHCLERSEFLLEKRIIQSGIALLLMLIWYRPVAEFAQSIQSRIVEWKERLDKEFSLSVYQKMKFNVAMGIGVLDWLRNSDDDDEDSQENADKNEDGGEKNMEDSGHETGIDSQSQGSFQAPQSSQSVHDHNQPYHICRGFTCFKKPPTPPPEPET

Aminopeptidase N = target: T4, Aminopeptidase N (Plasmodium falciparum FcB1/Columbia, UniProt O96935); experiment: P. falciparum M1AAP inhibitors, biochemical, fluorogenic H-Leu-NHMec substrate, 1536-well (AID 1445); parameters: species or system Plasmodium falciparum 3D7, 3D7
T4 sequence (O96935 whole entry): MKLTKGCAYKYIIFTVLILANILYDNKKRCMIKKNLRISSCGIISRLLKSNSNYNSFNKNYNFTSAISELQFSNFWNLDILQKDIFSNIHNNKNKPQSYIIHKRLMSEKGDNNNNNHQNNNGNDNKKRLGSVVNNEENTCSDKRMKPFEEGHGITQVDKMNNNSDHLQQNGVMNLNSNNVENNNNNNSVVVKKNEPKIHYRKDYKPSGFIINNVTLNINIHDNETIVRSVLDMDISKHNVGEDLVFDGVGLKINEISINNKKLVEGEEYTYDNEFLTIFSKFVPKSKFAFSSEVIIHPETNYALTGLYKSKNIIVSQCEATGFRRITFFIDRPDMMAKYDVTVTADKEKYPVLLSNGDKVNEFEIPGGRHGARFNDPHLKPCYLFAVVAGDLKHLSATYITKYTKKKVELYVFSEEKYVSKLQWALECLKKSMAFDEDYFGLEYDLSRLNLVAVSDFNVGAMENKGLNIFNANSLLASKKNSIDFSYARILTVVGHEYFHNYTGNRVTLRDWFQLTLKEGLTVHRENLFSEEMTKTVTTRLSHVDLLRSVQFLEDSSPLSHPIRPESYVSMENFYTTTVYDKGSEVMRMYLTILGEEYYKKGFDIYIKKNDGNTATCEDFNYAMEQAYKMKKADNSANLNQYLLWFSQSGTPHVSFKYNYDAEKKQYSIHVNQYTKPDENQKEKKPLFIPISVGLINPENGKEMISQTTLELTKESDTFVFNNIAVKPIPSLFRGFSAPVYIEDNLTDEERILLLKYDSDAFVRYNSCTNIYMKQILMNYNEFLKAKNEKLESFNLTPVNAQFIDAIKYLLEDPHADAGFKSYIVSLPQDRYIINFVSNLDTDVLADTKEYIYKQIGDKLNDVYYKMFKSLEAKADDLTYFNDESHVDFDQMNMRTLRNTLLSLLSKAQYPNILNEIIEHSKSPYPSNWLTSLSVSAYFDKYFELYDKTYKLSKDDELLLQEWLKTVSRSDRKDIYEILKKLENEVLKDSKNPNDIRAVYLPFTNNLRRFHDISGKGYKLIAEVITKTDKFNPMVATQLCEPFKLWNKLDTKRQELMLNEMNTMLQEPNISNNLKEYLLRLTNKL

[2] = target: Photoreceptor-specific nuclear receptor (Homo sapiens, UniProt Q9Y5X4); type: functional;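 note: potency for compounds that break the NR2E3 corepressor complex and count as activators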
Sequence of Photoreceptor-specific nuclear receptor (Q9Y5X4 whole entry): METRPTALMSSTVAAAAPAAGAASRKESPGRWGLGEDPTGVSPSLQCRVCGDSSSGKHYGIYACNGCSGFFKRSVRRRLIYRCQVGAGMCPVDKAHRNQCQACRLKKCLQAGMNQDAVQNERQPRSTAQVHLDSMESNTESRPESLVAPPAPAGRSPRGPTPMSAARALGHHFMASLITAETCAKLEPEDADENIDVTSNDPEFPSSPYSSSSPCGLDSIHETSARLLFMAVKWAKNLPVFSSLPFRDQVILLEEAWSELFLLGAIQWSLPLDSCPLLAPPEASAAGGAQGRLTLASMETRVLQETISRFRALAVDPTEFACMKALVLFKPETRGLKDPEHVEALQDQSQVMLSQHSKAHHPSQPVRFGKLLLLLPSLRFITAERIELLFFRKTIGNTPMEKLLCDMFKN

[3] = target: Tyrosyl-DNA phosphodiesterase 2 (Homo sapiens, UniProt O95551); experiment: human TDP2 enzyme inhibitors, dose response, biochemical, epi absorbance, IC50 (AID 743297)
Sequence of Tyrosyl-DNA phosphodiesterase 2 (O95551 whole entry): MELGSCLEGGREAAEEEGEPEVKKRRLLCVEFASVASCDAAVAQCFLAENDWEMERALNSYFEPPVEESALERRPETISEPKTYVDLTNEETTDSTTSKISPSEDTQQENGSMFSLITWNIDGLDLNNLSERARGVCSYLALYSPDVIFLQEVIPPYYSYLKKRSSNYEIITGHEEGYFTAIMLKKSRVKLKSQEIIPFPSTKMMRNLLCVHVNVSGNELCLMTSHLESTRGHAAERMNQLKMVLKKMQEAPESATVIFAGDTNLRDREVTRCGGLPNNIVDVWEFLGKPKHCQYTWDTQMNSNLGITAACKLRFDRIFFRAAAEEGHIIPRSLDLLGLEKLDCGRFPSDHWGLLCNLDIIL

Structure (SMILES): CCCCCCCCCCOC(=O)Cn1c(COc2ccccc2)[n+](C)c2ccccc21
- EC50 (Streptokinase A): > 150 µM (not active)
- EC50 (Streptococcus): 7.89 µM (active)

Structure (SMILES): CCOC(=O)c1c(-c2ccc(-c3ccccc3)cc2)csc1NC(=O)CNCCN(C)C
- IC50 (Protein skinhead-1): 12.5 µM (active)
- AC50 (HepG2): 18.4 µM (active)
- IC50 (Bcl-2-related protein A1): > 20 µM (inactive)
- EC50 [1]: 9.16 µM (active)
- AC50 (HeLa): 8.39 µM (active)

Structure (SMILES): COc1cc(-c2nnc(SCc3cc(=O)oc4cc(O)c(O)cc34)o2)cc(OC)c1OC
- IC50 (Troponin, cardiac muscle): > 2.65 µM (active)
- IC50 (Large T antigen): 2.8 µM (active)

Structure (SMILES): N#Cc1c(NC(=O)c2ccc(Br)o2)n(-c2ccccc2)c2nc3ccccc3nc12
- IC50 (Aminopeptidase N): 22.9 µM (active)
- IC50 [2]: > 39.8 µM (not active)
- IC50 [3]: 29.1 µM (inactive)

Reference: ChEMBL document CHEMBL1201862, “PubChem BioAssay data set” (2004)
